Reference: ChEMBL document CHEMBL4052645, “Discovery of potent and efficacious pyrrolopyridazines as dual JAK1/3 inhibitors” (Bioorg Med Chem Lett, 2017)

What was measured:
[1] = molecular target: Casein kinase I isoform gamma-1 (Homo sapiens) (UniProt Q9HCP0); experiment: Inhibition of wild-type human partial length CK1G1 (T15 to S353 residues) expressed in bacterial expression system assessed as residual activity at 50 nM by Kinomescan method relative to control
[2] = molecular target: Serine/threonine-protein kinase mTOR (Homo sapiens) (UniProt P42345); experiment: Inhibition of wild-type human partial length MTOR (L1382 to W2549 residues) expressed in mammalian expression system assessed as residual activity at 50 nM by Kinomescan method relative to control
[3] = molecular target: Serine/threonine-protein kinase TNNI3K (Homo sapiens) (UniProt Q59H18); experiment: Inhibition of wild-type human HH498 (M1 to S835 residues) expressed in bacterial expression system assessed as residual activity at 50 nM by Kinomescan method relative to control
[4] = molecular target: Mitogen-activated protein kinase kinase kinase 7 (Homo sapiens) (UniProt O43318); experiment: Inhibition of wild-type human partial length TAK1 (M1 to Q303 residues) expressed in mammalian expression system assessed as residual activity at 50 nM by Kinomescan method relative to control
[5] = molecular target: Serine/threonine-protein kinase SIK3 (Homo sapiens) (UniProt Q9Y2K2); experiment: Inhibition of wild-type human partial length QSK (A90 to L395 residues) expressed in mammalian expression system assessed as residual activity at 50 nM by Kinomescan method relative to control
[6] = molecular target: Tyrosine-protein kinase ABL1 (Homo sapiens) (UniProt P00519); experiment: Inhibition of wild-type human non-phosphorylated ABL1 (S229 to K512 residues) expressed in mammalian expression system assessed as residual activity at 50 nM by Kinomescan method relative to control
[7] = molecular target: ALK tyrosine kinase receptor (Homo sapiens) (UniProt Q9UM73); experiment: Inhibition of wild-type human partial length ALK (I1088 to E1409 residues) expressed in mammalian expression system assessed as residual activity at 50 nM by Kinomescan method relative to control
[8] = molecular target: Dual specificity mitogen-activated protein kinase kinase 7 (Homo sapiens) (UniProt O14733); experiment: Inhibition of wild-type human full length MAP2K7 (M1 to R419 residues) expressed in mammalian expression system assessed as residual activity at 50 nM by Kinomescan method relative to control
[9] = molecular target: Protein kinase C eta type (Homo sapiens) (UniProt P24723); experiment: Inhibition of wild-type human partial length PKCH (S324 to P683 residues) expressed in bacterial expression system assessed as residual activity at 50 nM by Kinomescan method relative to control
[10] = molecular target: Serine/threonine-protein kinase MAK (Homo sapiens) (UniProt P20794); experiment: Inhibition of wild-type human partial length MAK (M1 to P314 residues) expressed in bacterial expression system assessed as residual activity at 50 nM by Kinomescan method relative to control
[11] = molecular target: Tyrosine-protein kinase HCK (Homo sapiens) (UniProt P08631); experiment: Inhibition of wild-type human full length HCK (M22 to P526 residues) expressed in bacterial expression system assessed as residual activity at 50 nM by Kinomescan method relative to control
[12] = molecular target: Mitogen-activated protein kinase kinase kinase 20 (Homo sapiens) (UniProt Q9NYL2); experiment: Inhibition of wild-type human partial length ZAK (M1 to L331 residues) expressed in bacterial expression system assessed as residual activity at 50 nM by Kinomescan method relative to control
[13] = molecular target: Serine/threonine-protein kinase Nek7 (Homo sapiens) (UniProt Q8TDX7); experiment: Inhibition of wild-type human full length NEK7 (M1 to S302 residues) expressed in bacterial expression system assessed as residual activity at 50 nM by Kinomescan method relative to control
[14] = molecular target: Mitogen-activated protein kinase kinase kinase 2 (Homo sapiens) (UniProt Q9Y2U5); experiment: Inhibition of wild-type human partial length MAP3K2 (S315 to H619 residues) expressed in mammalian expression system assessed as residual activity at 50 nM by Kinomescan method relative to control
[15] = molecular target: Ribosomal protein S6 kinase alpha-6 (Homo sapiens) (UniProt Q9UK32); experiment: Inhibition of human N-terminal RSK4 kinase domain 1 (M1 to E397 residues) expressed in mammalian expression system assessed as residual activity at 50 nM by KINOMEscan assay relative to control
[16] = molecular target: Transient receptor potential cation channel subfamily M member 6 (Homo sapiens) (UniProt Q9BX84); experiment: Inhibition of wild-type human partial length TRPM6 (Q1723 to I1998 residues) expressed in mammalian expression system assessed as residual activity at 50 nM by Kinomescan method relative to control
[17] = molecular target: Vascular endothelial growth factor receptor 2 (Homo sapiens) (UniProt P35968); experiment: Inhibition of wild-type human partial length KDR (R787 to P1253 residues) expressed in mammalian expression system assessed as residual activity at 50 nM by Kinomescan method relative to control
[18] = molecular target: Leukocyte tyrosine kinase receptor (Homo sapiens) (UniProt P29376); experiment: Inhibition of wild-type human partial length LTK (P422 to S744 residues) expressed in bacterial expression system assessed as residual activity at 50 nM by Kinomescan method relative to control
[19] = molecular target: Citron Rho-interacting kinase (Homo sapiens) (UniProt O14578); experiment: Inhibition of wild-type human partial length CRIK (M68 to E432 residues) expressed in bacterial expression system assessed as residual activity at 50 nM by Kinomescan method relative to control
[20] = molecular target: Serine/threonine-protein kinase D3 (Homo sapiens) (UniProt O94806); experiment: Inhibition of wild-type human partial length PKD3 (S543 to E863 residues) expressed in bacterial expression system assessed as residual activity at 50 nM by Kinomescan method relative to control
[21] = molecular target: Macrophage colony-stimulating factor 1 receptor (Homo sapiens) (UniProt P07333); experiment: Inhibition of wild-type human partial length FMS (I564 to S939 residues) expressed in bacterial expression system assessed as residual activity at 50 nM by Kinomescan method relative to control
[22] = molecular target: SRSF protein kinase 1 (Homo sapiens) (UniProt Q96SB4); experiment: Inhibition of wild-type human full length SRPK1 (M1 to S655 residues) expressed in bacterial expression system assessed as residual activity at 50 nM by Kinomescan method relative to control
[23] = molecular target: Serine/threonine-protein kinase 24 (Homo sapiens) (UniProt Q9Y6E0); experiment: Inhibition of wild-type human partial length MST3 (A30 to S311 residues) expressed in bacterial expression system assessed as residual activity at 50 nM by Kinomescan method relative to control
[24] = molecular target: Serine/threonine-protein kinase pim-1 (Homo sapiens) (UniProt P11309); experiment: Inhibition of wild-type human partial length PIM1 (A15 to K313 residues) expressed in bacterial expression system assessed as residual activity at 50 nM by Kinomescan method relative to control
[25] = molecular target: Rho-associated protein kinase 1 (Homo sapiens, UniProt Q13464); experiment: Inhibition of human ROCK1 (M1 to R415 residues) expressed in mammalian expression system assessed as residual activity at 50 nM by KINOMEscan assay relative to control

Compound | Activity [1] [%] | Activity [2] [%] | Activity [3] [%] | Activity [4] [%] | Activity [5] [%] | Activity [6] [%] | Activity [7] [%] | Activity [8] [%] | Activity [9] [%] | Activity [10] [%] | Activity [11] [%] | Activity [12] [%] | Activity [13] [%] | Activity [14] [%] | Activity [15] [%] | Activity [16] [%] | Activity [17] [%] | Activity [18] [%] | Activity [19] [%] | Activity [20] [%] | further results
COc1ccc(-c2cc3c(N[C@@H]4CC[C@](C)(N)C4(C)C)c(C(N)=O)cnn3c2)cn1 | 100 | 97 | 97 | 73 | 86 | 90 | 94 | 55 | 70 | 100 | 100 | 91 | 100 | 46 | 46 | 90 | 88 | 100 | 100 | 73 | Activity [21]: 74%; Activity [22]: 62%; Activity [23]: 61%; Activity [24]: 93%; Activity [25]: 36%
CC1(C)[C@H](Nc2c(C(N)=O)cnn3cc(-c4ccccc4)cc23)CC[C@]1(C)N | 92 | 95 | 83 | 48 | 68 | 100 | 100 | 100 | 49 | 100 | 100 | 96 | 100 | 30 | 14 | 100 | 100 | 100 | 100 | 96 | Activity [21]: 57%; Activity [22]: 80%; Activity [23]: 38%; Activity [24]: 96%; Activity [25]: 5.3%
